# Source: ChEMBL document CHEMBL3352731, “Evaluation of gambierol and its analogs for their inhibition of human Kv1.2 and cytotoxicity” (Bioorg Med Chem Lett, 2015)
# Legend:
# CHO [1] = test: Cytotoxicity against CHO cells transfected with human Kv 1.2 assessed as growth inhibition after 72 hrs by WST-8 assay; type: cell-based; details: Cricetulus griseus
# CHO [2] = test: Cytotoxicity against wild-type CHO cells assessed as growth inhibition after 72 hrs by WST-8 assay; type: cell-based; details: Cricetulus griseus
# CHO [3] = test: Induction of leak current in wild-type CHO cells by electrophysiology method; type: cell-based, Cricetulus griseus; details: chinese hamster
# [4] = molecular target: Potassium voltage-gated channel subfamily A member 2 (Homo sapiens) (UniProt P16389); test: Inhibition of human Kv 1.2 stably expressed in CHO cells by whole cell patch clamp method; type: cell-based
# Sequence of Potassium voltage-gated channel subfamily A member 2 (Homo sapiens) (P16389 whole entry): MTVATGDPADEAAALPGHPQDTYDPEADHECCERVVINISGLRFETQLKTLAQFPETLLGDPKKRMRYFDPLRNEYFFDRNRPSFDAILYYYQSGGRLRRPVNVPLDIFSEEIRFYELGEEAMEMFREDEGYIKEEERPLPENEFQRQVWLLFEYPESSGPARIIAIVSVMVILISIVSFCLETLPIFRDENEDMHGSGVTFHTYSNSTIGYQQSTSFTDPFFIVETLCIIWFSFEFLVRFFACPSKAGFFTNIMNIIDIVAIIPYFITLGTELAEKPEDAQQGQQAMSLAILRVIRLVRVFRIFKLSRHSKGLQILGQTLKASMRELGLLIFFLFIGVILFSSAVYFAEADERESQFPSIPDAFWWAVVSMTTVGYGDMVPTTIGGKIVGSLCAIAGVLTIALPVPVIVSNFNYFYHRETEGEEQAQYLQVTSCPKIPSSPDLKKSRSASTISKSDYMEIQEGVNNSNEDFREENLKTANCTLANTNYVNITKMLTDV
SMILES,IC50 (CHO [1]) [µM],IC50 (CHO [2]) [µM],Activity (CHO [3]),inhibition [4]
C=CC/C=C\C=C/[C@H]1O[C@H]2C[C@H]3O[C@H]4CCCCO[C@]4(C)C[C@]3(C)O[C@@H]2C=C[C@]1(C)O,> 100,> 100,,
C=CC/C=C\C=C/[C@H]1O[C@H]2C[C@H]3O[C@H]4CC[C@H]5O[C@H]6C[C@@]7(C)OCCC[C@@H]7O[C@@H]6C[C@@H]5O[C@]4(C)C[C@]3(C)O[C@@H]2C=C[C@]1(C)O,6.5,6,,
C=CC/C=C\C=C/[C@H]1O[C@H]2C[C@H]3O[C@H]4CC[C@H]5O[C@H]6C[C@@]7(C)O[C@@]8(C)[C@@H](O)C[C@H](CCCO)O[C@@H]8C[C@@H]7O[C@@H]6C[C@@H]5O[C@]4(C)C[C@]3(C)O[C@@H]2C=C[C@]1(C)O,95,78,Dose-dependent effect,Dose-dependent effect
